Series [1] has as its system joint pain in a person. Description: joint pain relief in a person after oral fisetin. Type of series: in vivo, human. Particulars: for reported joint pain: ingested 5 consecutive days. The protocol:
In still another embodiment of the invention, the fisetin composition is used to relieve joint pain in a person. A person ingested fisetin (500 mg) in capsule powder form for 5 consecutive days, fisetin (500 mg) mixed in 35 mL of MCT oil for 5 consecutive days, or fisetin (500 mg) mixed in 40 mL of 40% ethanol and 60% water for 5 consecutive days, each test separated by a month. Reported joint pain decreased only after consuming fisetin in 40% ethanol and 60% water, but not the other regimens.

In series [2] the test system is skin of 20 people. Kind of series: topical skin treatment. Type of series: in vivo, human. The conditions noted are these: 200 mM fisetin in polyethylene glycol containing titanium nanoparticles; applied to the skin of 20 people for 2 days. The protocol:
In yet another example of the invention, fisetin can be used as a topical skin treatment. Fisetin was dissolved in polyethylene glycol containing titanium nanoparticles with a resulting fisetin concentration of 200 mM. Fisetin was applied to the skin of 20 people for 2 days.

Series [3] has as its system blood glucose level. Description: blood glucose level in a person after oral fisetin. The class given is in vivo, human. On the procedure: In still another example of the embodiment, fisetin can be used to decrease blood glucose level. Fisetin (500 mg) was ingested by a person after mixing with 75 mL of 53% ethanol and 47% water for 3 consecutive days.
A short description of series [4]: solubility of fisetin in water and in ethanol. Type of series: physicochemical. The protocol:
In one embodiment of the invention, a fisetin composition comprises fisetin and a second component that is selected from a group that comprises ethanol. The group may further comprise water. In one example, the solubility of fisetin in water is substantially 0.05 mg/mL or more, such as 0.1 mg/mL or more, 0.15 mg/mL or more, or 0.2 mg/mL. In another example, the solubility of fisetin in ethanol is substantially 2 mg/mL or more, such as 4 mg/mL or more, 6 mg/mL or more, 8 mg/mL or more, or 10 mg/mL or more.

[5] abbreviates: 500 mg for 5 consecutive days, regimen not specified, stated after the 40% ethanol and 60% water result.
Setting [6] is: 500 mg in 75 mL of 53% ethanol and 47% water, 3 consecutive days.

Experimental findings from patent US20210299082A1, “FISETIN COMPOSITION AND A METHOD OF MAKING THE SAME” (priority 2020, published 2021) are described below.

SMILES strings stand for the structures. Where two headings read alike, the source gives them in different places. Some results are limits rather than exact numbers.

For orientation: solubility means the concentration that dissolves in the medium under given conditions. On to `O=c1c(O)c(-c2ccc(O)c(O)c2)oc2cc(O)ccc12` [fisetin], for which the energy entry in series [1] (setting [5]) and in series [3] (setting [6]) was “slight increase” throughout. The metabolism result in series [1] (setting [5]) and in series [3] (setting [6]) was “slight increase” each time. In addition, the weight decrease entry in series [1] (500 mg for 5 consecutive days, to a BMI 23.7) was “approximately 1 kg”; in series [3] (500 mg in 75 mL of 53% ethanol and 47% water, 3 consecutive days, to a BMI 22.1), “approx. 1 kg”. For the same molecule, the reported joint pain entry in series [1] (500 mg in capsule powder form) is “not”; in series [1] (500 mg mixed in 35 mL of MCT oil), “not”; in series [1] (500 mg mixed in 40 mL of 40% ethanol and 60% water), “decreased”. In series [2], the “skin appearance reported by subjects” value is given as “improved skin appearance”. Besides, in series [3] (500 mg mixed with 75 mL of 53% ethanol and 47% water, 3 consecutive days, decreased from 5.7 mmol/L), the “waking blood glucose level after the administration” value is listed as 4.8 mmol/L. Besides, in series [3] (in a month afterwards without increased exercise), the muscle gain entry is listed as “slight muscle gain”. In addition, the solubility in series [4] (in water, read-out: solubility of fisetin in water) was at least 50 µg/mL; in series [4] (organic solvent or mixture, in ethanol, read-out: solubility of fisetin in ethanol) it was at least 2000 µg/mL.
